What was measured:
[1] = system: Bifidobacterium bifidum ATCC #29521; test: Growth in MRS broth + L-cysteine fortified with MSM
[2] = system: Escherichia coli; test: USP AET, MSM in TSB; assay type: cell-based; parameters: key: Colonies too numerous to count (TNTC); conditions: 48 hrs
Excerpt: (§1) Compounds or formulated products having antimicrobial activity may be evaluated with the United States Pharmacopeia (USP) Antimicrobial Effectiveness Test (AET). The AET involves the addition of specified microorganisms (Candida albicans, Aspergillus niger, Escherichia coli, Pseudomonas aeruginosa and Staphylococcus aureus) directly to a test product at relatively high concentrations to simulate contamination. The product is held for one month, with weekly analysis of microorganism levels. Depending on the route of administration of a product, satisfaction of the AET generally requires a 1 to 3 log reduction in bacteria from initial levels, which should occur in one to two weeks, with no further increase in bacteria after two weeks. For yeast and mold, no increase from the initial inoculums level is permitted.
(§2) Inoculations were made using Candida albicans, Aspergillus niger, Escherichia coli, Pseudomonas aeruginosa and Staphylococcus aureus. Tryptic soy broth (TSB) was used as the culturing media. […] The inoculated media was held for one month, during which time the added microorganisms were enumerated weekly to determine if they were growing, dying off, or remaining near the initial inoculation level. Data points were measured in triplicate at 48 hours, 3, 5, 14, 20, 28, and 30 days. The acceptance criteria for antimicrobial effectiveness are described in detail in the USP, herein incorporated by reference.

[3] = system: Pseudomonas aeruginosa; test: USP AET, MSM in TSB; assay type: cell-based; parameters: key: Colonies too numerous to count (TNTC); conditions: 48 hrs
Excerpt: as §1, §2

Question: For Methylsulfonylmethane [MSM], which “Log Growth of Bifidobacteruim bifidum in Media Fortified with MSM” value (from here on “Log Growth of Bifidobacteruim bifidum”) ([1]; 0.125% MSM, Hr 0) is on record?
Answer: Its value is 1.12 logs.

Question: What about the “Log Growth of Bifidobacteruim bifidum” value ([1]; 0.125% MSM, Hr 8) of the same substance?
Answer: The value was 2.89 logs.

Question: And the “Log Growth of Bifidobacteruim bifidum” value ([1]; 0.125% MSM, Hr 16)?
Answer: Its value is 7.85 logs.

Question: And the “Log Growth of Bifidobacteruim bifidum” value ([1]; 0.125% MSM, Hr 24)?
Answer: Its value is 9.06 logs.

Question: And the “Log Growth of Bifidobacteruim bifidum” value ([1]; 0.125% MSM, Hr 32)?
Answer: The value was 11.45 logs.

Question: And the “Log Growth of Bifidobacteruim bifidum” value ([1]; 0.125% MSM, Hr 40)?
Answer: Its value is 10.80 logs.

Question: What about the “Log Growth of Bifidobacteruim bifidum” value ([1]; 0.125% MSM, Hr 48) of the same substance?
Answer: The value was 8.22 logs.

Question: What about the “Log Growth of Bifidobacteruim bifidum” value ([1]; 0.125% MSM, Hr 56) of the same substance?
Answer: Its value is 7.25 logs.

Question: And the “Log Growth of Bifidobacteruim bifidum” value ([1]; 0.125% MSM, Hr 64)?
Answer: The value was 8.86 logs.

Question: What about the “Log Growth of Bifidobacteruim bifidum” value ([1]; 0.125% MSM, Hr 72) of the same substance?
Answer: Its value is 6.59 logs.

Question: What about the “Log Growth of Bifidobacteruim bifidum” value ([1]; 0.125% MSM, Hr 80) of the same substance?
Answer: Its value is 9.12 logs.

Question: And the “Log Growth of Bifidobacteruim bifidum” value ([1]; 0.125% MSM, Hr 88)?
Answer: Its value is 9.12 logs.

Question: And the “Log Growth of Bifidobacteruim bifidum” value ([1]; 0.125% MSM, Hr 96)?
Answer: Its value is less than 6.00 logs.

Question: And the “Log Growth of Bifidobacteruim bifidum” value ([1]; 0.5% MSM, Hr 0)?
Answer: Its value is 1.00 logs.

Question: What about the “Log Growth of Bifidobacteruim bifidum” value ([1]; 0.5% MSM, Hr 8) of the same substance?
Answer: Its value is 2.84 logs.

Question: What about the “Log Growth of Bifidobacteruim bifidum” value ([1]; 0.5% MSM, Hr 16) of the same substance?
Answer: The value was 7.45 logs.

Question: And the “Log Growth of Bifidobacteruim bifidum” value ([1]; 0.5% MSM, Hr 24)?
Answer: Its value is 8.81 logs.

Question: And the “Log Growth of Bifidobacteruim bifidum” value ([1]; 0.5% MSM, Hr 32)?
Answer: Its value is 11.22 logs.

Question: What about the “Log Growth of Bifidobacteruim bifidum” value ([1]; 0.5% MSM, Hr 40) of the same substance?
Answer: The value was 12.09 logs.

Question: What about the “Log Growth of Bifidobacteruim bifidum” value ([1]; 0.5% MSM, Hr 48) of the same substance?
Answer: Its value is 9.39 logs.

Question: What about the “Log Growth of Bifidobacteruim bifidum” value ([1]; 0.5% MSM, Hr 56) of the same substance?
Answer: Its value is 9.51 logs.

Question: What about the “Log Growth of Bifidobacteruim bifidum” value ([1]; 0.5% MSM, Hr 64) of the same substance?
Answer: The value was 10.34 logs.

Question: What about the “Log Growth of Bifidobacteruim bifidum” value ([1]; 0.5% MSM, Hr 72) of the same substance?
Answer: Its value is 8.35 logs.

Question: And the “Log Growth of Bifidobacteruim bifidum” value ([1]; 0.5% MSM, Hr 80)?
Answer: Its value is 10.38 logs.

Question: What about the “Log Growth of Bifidobacteruim bifidum” value ([1]; 0.5% MSM, Hr 88) of the same substance?
Answer: The value was 9.70 logs.

Question: What about the “Log Growth of Bifidobacteruim bifidum” value ([1]; 0.5% MSM, Hr 96) of the same substance?
Answer: Its value is 8.82 logs.

Question: And the log growth ([1]; 0.5% MSM, hour 96)?
Answer: The log growth was 8.82 logs.

Question: What about the “log growth (estimated, outside the countable range)” value ([1]; 1% MSM, Hour 96) of the same substance?
Answer: The value was “less than 6 logs”.

Question: And the “Log Growth of Bifidobacteruim bifidum” value ([1]; 1% MSM, Hr 0)?
Answer: Its value is 1.00 logs.

Question: What about the “Log Growth of Bifidobacteruim bifidum” value ([1]; 1% MSM, Hr 8) of the same substance?
Answer: The value was 2.73 logs.

Question: What about the “Log Growth of Bifidobacteruim bifidum” value ([1]; 1% MSM, Hr 16) of the same substance?
Answer: The value was 7.73 logs.

Question: And the “Log Growth of Bifidobacteruim bifidum” value ([1]; 1% MSM, Hr 24)?
Answer: Its value is 8.81 logs.

Question: And the “Log Growth of Bifidobacteruim bifidum” value ([1]; 1% MSM, Hr 32)?
Answer: Its value is 11.49 logs.

Question: What about the “Log Growth of Bifidobacteruim bifidum” value ([1]; 1% MSM, Hr 40) of the same substance?
Answer: The value was 11.19 logs.

Question: What about the “Log Growth of Bifidobacteruim bifidum” value ([1]; 1% MSM, Hr 48) of the same substance?
Answer: Its value is 10.43 logs.

Question: And the “Log Growth of Bifidobacteruim bifidum” value ([1]; 1% MSM, Hr 56)?
Answer: Its value is 10.57 logs.

Question: And the “Log Growth of Bifidobacteruim bifidum” value ([1]; 1% MSM, Hr 64)?
Answer: The value was 10.66 logs.

Question: And the “Log Growth of Bifidobacteruim bifidum” value ([1]; 1% MSM, Hr 72)?
Answer: The value was 8.34 logs.

Question: And the “Log Growth of Bifidobacteruim bifidum” value ([1]; 1% MSM, Hr 80)?
Answer: Its value is 9.43 logs.

Question: What about the “Log Growth of Bifidobacteruim bifidum” value ([1]; 1% MSM, Hr 88) of the same substance?
Answer: The value was 10.41 logs.

Question: And the “Log Growth of Bifidobacteruim bifidum” value ([1]; 1% MSM, Hr 96)?
Answer: Its value is less than 6.00 logs.

Question: And the “Log Growth of Bifidobacteruim bifidum” value ([1]; 5% MSM, Hr 0)?
Answer: Its value is 1.12 logs.

Question: What about the “Log Growth of Bifidobacteruim bifidum” value ([1]; 5% MSM, Hr 8) of the same substance?
Answer: The value was 2.04 logs.

Question: What about the “Log Growth of Bifidobacteruim bifidum” value ([1]; 5% MSM, Hr 16) of the same substance?
Answer: The value was 6.10 logs.

Question: What about the “Log Growth of Bifidobacteruim bifidum” value ([1]; 5% MSM, Hr 24) of the same substance?
Answer: The value was 8.43 logs.

Question: What about the “Log Growth of Bifidobacteruim bifidum” value ([1]; 5% MSM, Hr 32) of the same substance?
Answer: Its value is 11.13 logs.

Question: And the “Log Growth of Bifidobacteruim bifidum” value ([1]; 5% MSM, Hr 40)?
Answer: Its value is 11.78 logs.

Question: What about the “Log Growth of Bifidobacteruim bifidum” value ([1]; 5% MSM, Hr 48) of the same substance?
Answer: The value was 10.70 logs.

Question: And the “Log Growth of Bifidobacteruim bifidum” value ([1]; 5% MSM, Hr 56)?
Answer: The value was 10.59 logs.

Question: What about the “Log Growth of Bifidobacteruim bifidum” value ([1]; 5% MSM, Hr 64) of the same substance?
Answer: Its value is 14.32 logs.

Question: What about the “Log Growth of Bifidobacteruim bifidum” value ([1]; 5% MSM, Hr 72) of the same substance?
Answer: The value was 8.65 logs.

Question: What about the “Log Growth of Bifidobacteruim bifidum” value ([1]; 5% MSM, Hr 80) of the same substance?
Answer: Its value is 12.20 logs.

Question: What about the “Log Growth of Bifidobacteruim bifidum” value ([1]; 5% MSM, Hr 88) of the same substance?
Answer: The value was 12.31 logs.

Question: What about the “Log Growth of Bifidobacteruim bifidum” value ([1]; 5% MSM, Hr 96) of the same substance?
Answer: Its value is 9.60 logs.

Question: And the “Log Growth of Bifidobacteruim bifidum” value ([1]; […] MSM, Hr 96)?
Answer: The value was less than 6.00 logs.

Question: What about the “maximum reached before the control” value ([1]; all MSM concentrations) of the same substance?
Answer: Its value is 16 h.

Question: What about the AET microorganism count ([2]; 1:100 dilution of MSM) of the same substance?
Answer: The AET microorganism count was “TNTC”.

Question: And the AET microorganism count ([2]; 1:1000 dilution of MSM)?
Answer: Its AET microorganism count is “TNTC”.

Question: And the AET microorganism count ([3]; 1:100 dilution of MSM)?
Answer: Its AET microorganism count is “TNTC”.

Question: And the AET microorganism count ([3]; 1:1000 dilution of MSM)?
Answer: The AET microorganism count was “TNTC”.
